Reference: PubChem BioAssay (NCI)
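At the GI50, growth is halved. TGI denotes the concentration required for complete inhibition of growth.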

What was measured:
Assay in all cases: inhibition of tumour cell growth, NCI panel, 384-well format
[1] = tested on: K-562 leukemia
[2] = tested on: HCC-2998 colon
[3] = tested on: NCI-H226 lung
[4] = tested on: SF-539 CNS
[5] = tested on: SNB-75 CNS
[6] = tested on: DU-145 prostate
[7] = tested on: SNB-19 CNS
[8] = tested on: NCI-H322M lung
[9] = tested on: BT-549 breast
[10] = tested on: HL-60(TB) leukemia
[11] = tested on: CAKI-1 renal
[12] = tested on: HCT-15 colon
[13] = tested on: NCI-H460 NSCLC
[14] = tested on: HS 578T breast
[15] = tested on: UO-31 renal
[16] = tested on: PC-3 prostate
[17] = tested on: ACHN renal
[18] = tested on: M14 melanoma
[19] = tested on: OVCAR-5 ovarian
[20] = tested on: NCI-H522 lung
[21] = tested on: MCF7 breast
[22] = tested on: SF-268 CNS
[23] = tested on: MDA-MB-231 breast
[24] = tested on: RPMI-8226 leukemia
[25] = tested on: NCI/ADR-RES ovarian
[26] = tested on: MOLT-4 leukemia
[27] = tested on: OVCAR-3 ovarian
[28] = tested on: TK-10 renal
[29] = tested on: HOP-62 NSCLC
[30] = tested on: HOP-92 NSCLC
[31] = tested on: OVCAR-8 ovarian
[32] = tested on: SK-MEL-5 melanoma
[33] = tested on: SN12C renal
[34] = tested on: SF-295 CNS
[35] = tested on: UACC-257 melanoma
[36] = tested on: MDA-MB-468 breast
[37] = tested on: COLO 205 colon
[38] = tested on: A549 NSCLC
[39] = tested on: NCI-H23 lung
[40] = tested on: SK-MEL-28 melanoma
[41] = tested on: SW-620 colon
[42] = tested on: MALME-3M melanoma
[43] = tested on: LOX IMVI melanoma
[44] = tested on: CCRF-CEM leukemia
[45] = tested on: RXF 393 renal
[46] = tested on: SR leukemia
[47] = tested on: IGROV1 ovarian
[48] = tested on: EKVX NSCLC
[49] = tested on: MDA-MB-435 melanoma
[50] = tested on: 786-0 renal
[51] = tested on: OVCAR-4 ovarian

COc1cc(OC)c(/C=C/S(=O)(=O)Cc2ccc(OC)c(NCC(=O)O)c2)c(OC)c1
GI50 [1]: 32.4 nM
TGI [1]: 109 nM
GI50 [2]: 40.5 nM
TGI [2]: 264 nM
GI50 [3]: 38.3 nM
TGI [3]: > 100000 nM
GI50 [4]: 20.8 nM
TGI [4]: 50.8 nM
GI50 [5]: 35.1 nM
TGI [5]: 211 nM
GI50 [6]: 177 nM
TGI [6]: 1040 nM
GI50 [7]: 43.9 nM
TGI [7]: > 100000 nM
GI50 [8]: 90.9 nM
TGI [8]: > 100000 nM
GI50 [9]: 48.1 nM
TGI [9]: 344 nM
GI50 [10]: 33.6 nM
TGI [10]: 101 nM
GI50 [11]: 46 nM
TGI [11]: > 100000 nM
GI50 [12]: 32.3 nM
TGI [12]: 373 nM
GI50 [13]: 22.6 nM
TGI [13]: 59.3 nM
GI50 [14]: 15.4 nM
TGI [14]: 34.7 nM
GI50 [15]: 86.2 nM
TGI [15]: > 100000 nM
GI50 [16]: 31.5 nM
TGI [16]: > 100000 nM
GI50 [17]: 58.9 nM
TGI [17]: > 100000 nM
GI50 [18]: 25.9 nM
TGI [18]: 82.7 nM
GI50 [19]: 135 nM
TGI [19]: > 100000 nM
GI50 [20]: 14.4 nM
TGI [20]: 33 nM
GI50 [21]: 47.3 nM
TGI [21]: 26000 nM
GI50 [22]: 51 nM
TGI [22]: 2040 nM
GI50 [23]: 92.9 nM
TGI [23]: > 100000 nM
GI50 [24]: 19 nM
TGI [24]: 37.5 nM
GI50 [25]: 16.4 nM
TGI [25]: 36.4 nM
GI50 [26]: 64.1 nM
TGI [26]: 187 nM
GI50 [27]: 16.8 nM
TGI [27]: 38.2 nM
GI50 [28]: 50.9 nM
TGI [28]: > 100000 nM
GI50 [29]: 42.6 nM
TGI [29]: > 100000 nM
GI50 [30]: 38.5 nM
TGI [30]: 4170 nM
GI50 [31]: 30.3 nM
TGI [31]: 93.8 nM
GI50 [32]: 19.5 nM
TGI [32]: 45.8 nM
GI50 [33]: 63.8 nM
TGI [33]: > 100000 nM
GI50 [34]: 23.1 nM
TGI [34]: 57.6 nM
GI50 [35]: 17.7 nM
TGI [35]: 370 nM
GI50 [36]: 17.5 nM
TGI [36]: 42.3 nM
GI50 [37]: 215 nM
TGI [37]: 537 nM
GI50 [38]: 61.3 nM
TGI [38]: > 100000 nM
GI50 [39]: 24.9 nM
TGI [39]: 77.4 nM
GI50 [40]: 63.7 nM
TGI [40]: > 100000 nM
GI50 [41]: 33.8 nM
TGI [41]: > 100000 nM
GI50 [42]: 25.9 nM
TGI [42]: 92.9 nM
GI50 [43]: 45.7 nM
TGI [43]: 362 nM
GI50 [44]: 49.4 nM
TGI [44]: 157 nM
GI50 [45]: 16.8 nM
TGI [45]: 49.4 nM
GI50 [46]: 16.1 nM
TGI [46]: 31.6 nM
GI50 [47]: 60.4 nM
TGI [47]: > 100000 nM
GI50 [48]: 41.1 nM
TGI [48]: > 100000 nM
GI50 [49]: 17.1 nM
TGI [49]: 36.6 nM
GI50 [50]: 30.7 nM
TGI [50]: 607 nM
GI50 [51]: 24.6 nM
TGI [51]: 95.5 nM
